Patent publication US20230278972A1, “SUBSTITUTED HALOALKYL SULFONANILIDE HERBICIDES” (FMC Corporation, priority 2020, published 2023)

Legend:
Type in all cases: in vivo
[1] = test system: kochia (Bassia scoparia); experiment: Test A postemergence, kochia; conditions: Bassia scoparia, post-emergence, 240 h, Postemergence, 0 to 100 scale (0 no effect, 100 complete control)
Method in brief: (§1)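 Greenhouse pot test in a loam–sand blend; compounds delivered in a non-phytotoxic solvent carrying a surfactant, applied either as a directed spray to soil at seeding or over seedlings 2 to 10 cm high with one to two leaves.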

[2] = test system: Ryegrass, Italian (Italian ryegrass, Lolium multiflorum); experiment: Test A postemergence, Ryegrass, Italian; conditions: Lolium multiflorum, post-emergence, 240 h, Postemergence, 0 to 100 scale (0 no effect, 100 complete control)
Method in brief: as §1

[3] = test system: Foxtail, Giant (giant foxtail, Setaria faberi); experiment: Test A postemergence, Foxtail, Giant; conditions: Setaria faberi, post-emergence, 240 h, Postemergence, 0 to 100 scale (0 no effect, 100 complete control)
Method in brief: as §1

[4] = test system: galium (catchweed bedstraw, Galium aparine); experiment: Test A postemergence, galium; conditions: Galium, post-emergence, 240 h, Postemergence, 0 to 100 scale (0 no effect, 100 complete control)
Method in brief: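 Seeds are sown in loam mixed with sand and sprayed on the soil surface right after planting for the preemergence test. Postemergence pots are sprayed once seedlings reach 2 to 10 cm at the one- to two-leaf stage. The same surfactant-containing, non-phytotoxic solvent formulation serves both.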

Cc1cc(C)c(N(COC(=O)C(C)(C)C)S(=O)(=O)C(F)(F)F)cc1C1=NOC2(CCCC2)C1 [Compound 140, [[2,4-Dimethyl-5-(1-oxa-2-azaspiro[4.4]non-2-en-3-yl)phenyl][(trifluoromethyl)sulfonyl]amino]methyl 2,2-dimethylpropanoate]
pest or weed control at 125 g/ha ([1]; 125 g ai/ha, visual injury approx. 10 days, read-out: Plant response rating, Kochia): 10%
pest or weed control at 500 g/ha ([1]; 500 g ai/ha, visual injury vs untreated controls after approx. 10 days, read-out: Kochia plant response rating): 60%
pest or weed control at 125 g/ha ([2]; 125 g ai/ha, read-out: Plant response rating, Ryegrass, Italian): 0%
pest or weed control at 500 g/ha ([2]; 500 g ai/ha, visual injury vs untreated controls after approx. 10 days, read-out: Ryegrass, Italian plant response rating): 20%
pest or weed control at 125 g/ha ([3]; 125 g ai/ha, visual injury approx. 10 days, read-out: Plant response rating, Foxtail, Giant): 30%
pest or weed control at 500 g/ha ([3]; 500 g ai/ha, visual injury vs untreated controls after approx. 10 days, read-out: Foxtail, Giant plant response rating): 90%
pest or weed control at 125 g/ha ([4]; 125 g ai/ha, visual injury approx. 10 days, read-out: Plant response rating, Galium): 50%
pest or weed control at 500 g/ha ([4]; 500 g ai/ha, visual injury vs untreated controls after approx. 10 days, read-out: Galium plant response rating): 70%
